From paper PMC4145321, “Synthesis and Biological Evaluation of Novel 3-Alkylpyridine Marine Alkaloid Analogs with Promising Anticancer Activity” (Marine Drugs, 2014)
Entries after “also recorded” stand apart in the source; their conditions may differ.

Experiments:
[1] = test system: RKO-AS-45-1 cells (colon carcinoma); assay: MTT cytotoxicity assay, RKO-AS-45-1; assay type: cell-based, human; settings: for IC50: Homo sapiens, RKOAS451, MTT, 48 h incubation, triplicate, average ± SD; for Selectivity Index (SI) RKO AS-45-1: ratio of IC50 WI-26VA4 and IC50 RKO-AS-45-1
Method: (§1) The cytotoxicity of the compounds was assessed with the human cell lines, HeLa (cervix adenocarcinoma ATCC# CCl-2), RKO-AS-45-1 (colon carcinoma ATCC# CRL-2579) and WI-26 VA4 (fibroblast ATCC# CCL-95.1) using the MTT (3-(4,5-dimethylthiazol-2-yl)-2,5-diphenyltetrazolium bromide) (Sigma, St. Louis, MO, USA) colorimetric method. Briefly, the cells were plated in 96-well plates (1 × 10^5 cells/well) and incubated for 24 h at 37 °C in a humidified atmosphere with 5% CO2. After 24 h, the wells were washed with culture medium (RPMI +10% inactivated fetal calf serum + 2 mM L-glutamine) and incubated with the compounds at various concentrations (0.05 to 500 μM). After 48 h of incubation, the plates were treated with MTT. The colorimetric measurement was performed at 550 nm using the microplate reader, Spectramax M5e (Molecular Devices, Sunnyvale, CA, USA). Cytotoxicity was scored as the percent reduction in absorbance versus untreated control cultures. All experiments were performed in triplicate. The results are expressed as the mean of the IC50 (the lethal drug concentration that reduced cell viability by 50%). The IC50 values were calculated using OriginPro 8.0 (OriginLab Corporation, Northampton, MA, USA) software. A selectivity index (SI), corresponding to the ratio between the cytotoxic activities of each compound against the HeLa and RKO-AS-45-1 cell lines and the cytotoxicity against WI-26 VA4, was calculated as follows: […]

[2] = test system: HeLa cells (cervix adenocarcinoma); assay: MTT cytotoxicity assay, HeLa; assay type: cell-based, human; settings: for IC50: Homo sapiens, HeLa, MTT, 48 h incubation, triplicate, average ± SD; for Selectivity Index (SI) HeLa: ratio of IC50 WI-26VA4 and IC50 HeLa
Method: as §1

RKO-AS-45-1 cells [3] = assay: Cytokinesis-block micronucleus assay; assay type: cell-based, human; settings: 3 h treatment
Method: To assess the potential of the synthetic alkaloids to induce DNA damage (chromosomal mutations) in vitro, the cytokinesis-block micronucleus assay was performed in the RKO-AS-45-1 cell line. The procedures were developed as described by Fenech, with adaptations. Briefly, the cells were seeded in 24-well plates (2.5 × 10^5 cells/well) and maintained at 37 °C in a humid atmosphere with 5% CO2. After 24 h, the cells were washed twice with PBS, and the treatments were performed in culture media without serum for three hours. Each treatment was performed in triplicate. The negative control group was treated with PBS, and a positive control group was established with the treatment of the cells with methyl methanesulfonate (MMS—400 μM).
After completing treatments with three concentrations lower than the IC50 of Compounds 4c (4.8, 9.6 and 14.3 μM) and 5c (5.9, 11.8, and 17.8 μM) diluted in culture media, the cells were washed twice with PBS, trypsinized and centrifuged for 5 min at 1200 rpm. The pellet was then resuspended in chilled hypotonic solution (1% sodium citrate) together with one drop of 1% formaldehyde and carefully homogenized with a Pasteur pipette. This cell suspension was centrifuged for 5 min at 1200 rpm and resuspended in 5 mL of fixative, methanol/acetic acid (3:1 v/v). Next, the tubes were centrifuged for 5 min, and the supernatant was discarded; the cell suspension was spread onto slides previously cleaned and covered with a film of chilled distilled water.
At the moment of cytogenetic analysis, the slides were stained with DAPI (4′,6-diamidino-2-phenylindole) diluted in phosphate buffer (0.06 M Na2HPO4 and 0.06 M KH2PO4, pH 6.8) for 2 min, washed with distilled water and analyzed under a fluorescent microscope (Zeiss, Axioscope) with an excitation filter of 365 nm and a barrier filter of 445/450 nm. Two thousands cells with a well-preserved cytoplasm were analyzed for each treatment in a blind test. Cells containing 1–3 micronuclei were scored. The criterion for the identification of MNs was according to a previous report. […]

RKO-AS-45-1 cells [4] = assay: Frequency of binucleation (mitotic index); assay type: cell-based, human; settings: 300 cells counted
Method: The influence of the synthetic alkaloids on cell division was assessed by calculating the frequency of binucleation in RKO-AS-45-1 cells. The same slides prepared for the micronucleus assay were used, and 300 cells with a well-preserved cytoplasm were counted using fluorescence microscopy, as described above. The frequency of binucleated cells was calculated as the proportion (percentage) of cells undergoing complete cell division after exposure to digoxin and controls.

RKO-AS-45-1 cells [5] = assay: TUNEL apoptosis assay, RKO-AS-45-1; assay type: cell-based, human; settings: 48 h; 4c at 5.1 μM, 5c at 19.1 μM
Method: (§2) Apoptotic cell death was measured using the APO-BrdU TUNEL assay kit (Invitrogen, Carlsbad, CA, USA). Briefly, the effect of Compounds 4c and 5c and etoposide on DNA fragmentation was determined using Hela and RKO-AS-45-1 cells. The cells were incubated with the compounds for 48 h, as described above, and fixed using a solution of ice-cold 70% ethanol. The cells were then counterstained with 5-bromo-2′-deoxyuridine 5′-triphosphate (BrdUTP) in the presence of terminal deoxynucleotidyl transferase (TdT) and stained with an anti-BrdU monoclonal antibody-PRB-1 Alexa Fluor 488 conjugate, as previously described. The loaded cells were visualized by fluorescence microscopy using a Zeiss Axiovert 200 (Carl Zeiss, Oberkochen, Germany).

HeLa cells = assay: TUNEL apoptosis assay, HeLa; assay type: cell-based, human; settings: 48 h; 4c at 19.1 μM, 5c at 8.5 μM
Method: as §2

[6] = test system: WI-26VA4 cells (lung fibroblast, non-cancerous); assay: MTT cytotoxicity assay, WI-26VA4; assay type: cell-based; settings: Homo sapiens, WI26VA4, 48 h incubation, triplicate, average ± SD
Method: The cytotoxicity of the compounds was assessed with the human cell lines, HeLa (cervix adenocarcinoma ATCC# CCl-2), RKO-AS-45-1 (colon carcinoma ATCC# CRL-2579) and WI-26 VA4 (fibroblast ATCC# CCL-95.1) using the MTT (3-(4,5-dimethylthiazol-2-yl)-2,5-diphenyltetrazolium bromide) (Sigma, St. Louis, MO, USA) colorimetric method. Briefly, the cells were plated in 96-well plates (1 × 10^5 cells/well) and incubated for 24 h at 37 °C in a humidified atmosphere with 5% CO2. After 24 h, the wells were washed with culture medium (RPMI +10% inactivated fetal calf serum + 2 mM L-glutamine) and incubated with the compounds at various concentrations (0.05 to 500 μM). After 48 h of incubation, the plates were treated with MTT. The colorimetric measurement was performed at 550 nm using the microplate reader, Spectramax M5e (Molecular Devices, Sunnyvale, CA, USA). Cytotoxicity was scored as the percent reduction in absorbance versus untreated control cultures. All experiments were performed in triplicate. […] The IC50 values were calculated using OriginPro 8.0 (OriginLab Corporation, Northampton, MA, USA) software. A selectivity index (SI), corresponding to the ratio between the cytotoxic activities of each compound against the HeLa and RKO-AS-45-1 cell lines and the cytotoxicity against WI-26 VA4, was calculated as follows: SI = […].

[7] = test system: actin cytoskeleton of RKO-AS-45-1 cells; assay: Actin polymerization by fluorescence microscopy; assay type: cell-based, human; settings: 19.1 μM, 24 h, phalloidin Alexa Fluor 488
Method: The control with non-treated cells was included in parallel. After 24 h, the cells were rinsed in phosphate-buffered saline (PBS) for 3 min, fixed in paraformaldehyde (#15,812-7, Sigma) at 4% in PBS for 1 h and permeabilized with 0.1% Triton X-100 (#17-1315-01, Plusone, GE Healthcare, Fairfield, CA, USA) in PBS for 10 min. The RKO-AS-45-1 cells were labeled with Phalloidin Alexa Fluor® 488 (#A12379, Molecular Probes, Eugene, OR, USA), and the nuclei were counterstained with 4,6-diaminidino-2-phenylindole (DAPI; Molecular Probes, #D1306) according to the manufacturer’s instructions. Image acquisition was performed using an AxioVert 200 microscope (Carl Zeiss, Oberkochen, Germany).

Compound | IC50 [1] [µM] | IC50 [2] [µM] | Selectivity Index (SI) RKO AS-45-1 [1] | Selectivity Index (SI) HeLa [2] | further results
c1cncc(CCCOCCCCCCOC2CCCCO2)c1 (stereo not shown) [Compound 4a, 1-[3-(pyridin-3-yl)propoxy]-6-(oxan-2-yloxy)hexane] | > 300 | > 300 |  |  | 
c1cncc(CCCOCCCCCCCCOC2CCCCO2)c1 (stereo not shown) [Compound 4b, 1-[3-(pyridin-3-yl)propoxy]-8-(oxan-2-yloxy)octane] | 23.7 ± 1.7 | 8.1 ± 2.7 | 1.59 | 4.66 | 
c1cncc(CCCOCCCCCCCCCCOC2CCCCO2)c1 (stereo not shown) [Compound 4c, 1-[3-(pyridin-3-yl)propoxy]-10-(oxan-2-yloxy)decane] | 5.1 ± 1.1 | 4 ± 0.8 | 1.25 | 1.60 | Micronucleus frequency vs control (RKO-AS-45-1 cells [3]; 2.5 and 4.0 μM (two highest concentrations), 2000 binucleated cells, p < 0.05): significantly higher than that detected in the control; also recorded: statistically higher than that identified in the control group; Micronucleus frequency vs control (RKO-AS-45-1 cells [3]; lower concentrations evaluated): did not induce significant alterations in the MN frequency; Frequency of binucleation vs negative control (RKO-AS-45-1 cells [4]; two highest concentrations assessed): reduced the binucleation frequency; Apoptosis induction (TUNEL) (RKO-AS-45-1 cells [5]): promoted apoptosis; Apoptosis induction (TUNEL) (HeLa cells): promoted apoptosis
c1cncc(CCCOCCCCCCCCCCCCOC2CCCCO2)c1 (stereo not shown) [Compound 4d, 1-[3-(pyridin-3-yl)propoxy]-12-(oxan-2-yloxy)dodecane] | 3.2 ± 1.7 | 9.4 ± 0.7 | 3.53 | 1.20 | 
OCCCCCCOCCCc1cccnc1 [Compound 5a, 6-[3-(pyridin-3-yl)propoxy]hexan-1-ol] | > 400 | > 400 |  |  | 
OCCCCCCCCOCCCc1cccnc1 [Compound 5b, 8-[3-(pyridin-3-yl)propoxy]octan-1-ol] | > 300 | 192 ± 10.1 |  | 0.87 | IC50 [6]: 167 ± 10.5 µM
OCCCCCCCCCCOCCCc1cccnc1 [Compound 5c, 10-[3-(pyridin-3-yl)propoxy]decan-1-ol] | 19.1 ± 4.4 | 8.5 ± 2.4 | 5.18 | 11.65 | Micronucleus frequency vs control (RKO-AS-45-1 cells [3]; 17.8 μM (highest concentration), 2000 binucleated cells, p < 0.05): significantly higher than that found in the control; also recorded: statistically higher than that identified in the control group; Frequency of binucleation / proliferation rate vs control (RKO-AS-45-1 cells [4]; highest concentration assessed, p < 0.05): reduced the proliferation rate; also recorded: induced a reduction in the proliferation rate; Apoptosis induction (TUNEL) (RKO-AS-45-1 cells [5]): promoted apoptosis; Apoptosis induction (TUNEL) (HeLa cells): promoted apoptosis; Effect on actin cytoskeleton / actin polymerization [7]: actin polymerization is altered; also recorded: accentuated alteration of the cellular actin network
OCCCCCCCCCCCCOCCCc1cccnc1 [Compound 5d, 12-[3-(pyridin-3-yl)propoxy]dodecan-1-ol] | 132 ± 16.8 | 8.8 ± 1.9 | 0.25 | 3.87 | 
COc1cc([C@@H]2c3cc4c(cc3[C@@H](O[C@@H]3O[C@@H]5CO[C@@H](C)O[C@H]5[C@H](O)[C@H]3O)[C@H]3COC(=O)[C@H]23)OCO4)cc(OC)c1O [Etoposide, reference compound] | 1.4 ± 0.6 | 2.7 ± 0.4 |  |  | 
